Test results: ChEMBL document CHEMBL1134303, “Systematic structure-based design and stereoselective synthesis of novel multisubstituted cyclopentane derivatives with potent antiinfluenza activity” (J Med Chem, 2001)

Biological target: Neuraminidase (Influenza A virus (A/Puerto Rico/8/1934(H1N1)), UniProt P03468)
Assay: Inhibitory activity against influenza A neuraminidase

Chain of Neuraminidase (Influenza A virus (A/Puerto Rico/8/1934(H1N1)), UniProt P03468) (P03468 whole entry): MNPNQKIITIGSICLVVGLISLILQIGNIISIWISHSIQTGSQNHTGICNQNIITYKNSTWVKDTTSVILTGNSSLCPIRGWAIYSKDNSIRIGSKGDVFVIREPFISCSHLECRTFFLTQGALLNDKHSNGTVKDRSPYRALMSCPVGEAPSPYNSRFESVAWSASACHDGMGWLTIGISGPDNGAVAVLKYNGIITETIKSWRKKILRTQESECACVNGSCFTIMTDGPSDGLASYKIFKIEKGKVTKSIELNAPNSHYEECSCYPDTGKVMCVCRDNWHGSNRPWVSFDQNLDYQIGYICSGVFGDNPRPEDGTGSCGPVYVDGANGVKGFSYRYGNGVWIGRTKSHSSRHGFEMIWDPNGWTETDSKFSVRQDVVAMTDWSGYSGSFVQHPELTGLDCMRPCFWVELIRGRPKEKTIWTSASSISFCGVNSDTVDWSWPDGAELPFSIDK

Structure (SMILES)	IC50
CCC(CC)[C@H](NC(C)=O)[C@@H]1C[C@@H](C(=O)O)C[C@H]1N=C(N)N	< 1 nM
CCC(CC)[C@H](NC(C)=O)[C@@H]1[C@H](O)[C@@H](C(=O)O)C[C@H]1NC(=N)N [PERAMIVIR ANHYDROUS]	< 1 nM
